Like-named read-outs stand apart in the source and are kept apart here.
Assays:
thrombus = details: 40 min after last injection; for Gadolinium concentration: 4 repeated doses of 1 μM Gadolinium/kg bw i.v.; for thrombus/blood ratio: total dose 4 μM Gadolinium/kg bw
Method: The specific binding of the compound described in Example 1 was investigated in cynomolgus monkey (female 3.0 kg bodyweight).
The monkey was anesthetized with a mixture of Xylazin (Rompun®, Bayer HealthCare, Leverkusen, Germany), 0.12 mL/Kg and Ketamine (Ketavet®, Pfizer) 0.12 mL/Kg b.w. i.m. While the investigation, small amounts of Xylazin/Ketamine (1+1) have been injected i.m. if required. The left common carotid artery was exposed 10 min with iron-III-chloride solution (10%). Following thrombus induction the monkey received 1 μmol Gadolinium/kg bodyweight (equals 0.125 μmol molecule/kg bodyweight) i.v. Afterwards, the right carotid artery was exposed 8 min with iron-III-chloride solution (10%) and the monkey received a repeated dose of 1 μmol Gadolinium/kg bodyweight iv.
After the first two contrast media applications the right carotid artery was exposed surgically and a polyethylene-tube ([…] Polyethylene Tubing, Clay Adams, PE50), which was roughened previously by sandpaper (600—CAMI Grit designation), was inserted into the vessel, advanced into the descending aorta and was left there for 30 minutes to allow for the development of a thrombus on the rough surface of the tube. The monkey received 1 μmol Gadolinium/kg bodyweight (equals 0.125 μmol molecule/kg bodyweight) i.v. 30 min and 90 min post catheterization. 40 min after the last contrast media application the animal was sacrificed using Pentobarbital (Narcoren). The gadolinium concentrations in blood, thombus of the left and right carotis, right carotis, left carotis, jugular vein and aorta were determined using an inductively coupled plasma mass spectrometry (ICP-MS Agilent 7500a).

[1] = tested on: human activated platelets; assay: Binding of compounds to human activated platelets (Gd by ICP-MS in pellet and supernatant); format: cell-based
Method: For each experiment fresh blood was taken from a volunteer using 10 mL citrate-tubes (Sarstedt S-Monovette 02.1067.001, 10 mL, Citrate 3.13%). The 10 mL citrate-tubes were carefully inverted 10 times to mix blood and anticoagulant. The tubes were stored in an incubator at a temperature of 37° C. until centrifugation (Heraeus miniTherm CTT with integrated rotation- and turning device, turning speed: 19 rotations per minute, Heraeus Instruments GmbH, Hanau/Germany).
For plasma preparation tube centrifugation was carried out for 15 minutes at 1811 g at room temperature (Eppendorf, Centrifuge 5810R). To produce platelet-rich plasma blood was centrifuged 15 minutes at 201 g at room temperature. The tubes were stood for 30 min at room temperature to get a better separation. The separated platelet-rich plasma was finally centrifuged for further 3 min at 453 g to remove the remaining erythrocytes. The platelet-rich plasma was activated using a final concentration of 5 μM Adenosindiphosphate (ADP, Sigma). The activated platelet-rich plasma was incubated 20 minutes […] with different concentrations of gadolinium-labeled compound and subsequently was centrifuged 3 minutes at 1360 g. 20 μL of supernatant was taken to determine the concentration (n=3). The pellet was resuspended and washed two times with at least 750 μL plasma and subsequently was redispered in 750 μL plasma and 50 μL calciumchloride (50 μL 2%).

[2] = target: human GPIIb/IIIa receptor (Homo sapiens, UniProt P05106+P08514); assay: biochemical
human GPIIb/IIIa receptor, sequence (P08514 32-887 limits assumed): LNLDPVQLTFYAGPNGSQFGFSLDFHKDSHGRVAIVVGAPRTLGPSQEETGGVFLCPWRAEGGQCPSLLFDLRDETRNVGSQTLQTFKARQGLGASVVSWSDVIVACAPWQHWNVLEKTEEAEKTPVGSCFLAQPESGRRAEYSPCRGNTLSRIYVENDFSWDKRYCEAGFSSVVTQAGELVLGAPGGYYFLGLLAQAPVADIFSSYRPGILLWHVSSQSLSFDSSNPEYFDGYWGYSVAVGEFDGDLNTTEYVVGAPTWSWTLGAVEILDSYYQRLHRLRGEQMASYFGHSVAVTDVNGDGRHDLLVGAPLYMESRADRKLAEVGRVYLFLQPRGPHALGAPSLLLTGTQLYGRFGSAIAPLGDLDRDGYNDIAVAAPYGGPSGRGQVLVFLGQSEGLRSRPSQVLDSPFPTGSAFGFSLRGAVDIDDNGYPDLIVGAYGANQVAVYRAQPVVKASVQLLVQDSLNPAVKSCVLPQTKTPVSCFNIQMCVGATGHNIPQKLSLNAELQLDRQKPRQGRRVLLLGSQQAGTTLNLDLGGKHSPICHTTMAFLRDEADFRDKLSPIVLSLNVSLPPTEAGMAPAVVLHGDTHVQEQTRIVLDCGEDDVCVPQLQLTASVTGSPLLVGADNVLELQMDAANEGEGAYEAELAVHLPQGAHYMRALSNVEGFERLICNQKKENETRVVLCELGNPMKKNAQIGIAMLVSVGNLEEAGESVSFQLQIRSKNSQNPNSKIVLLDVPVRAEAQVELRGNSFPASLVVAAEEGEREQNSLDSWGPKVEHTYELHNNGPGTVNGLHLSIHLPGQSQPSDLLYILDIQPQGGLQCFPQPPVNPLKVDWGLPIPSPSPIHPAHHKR
human GPIIb/IIIa receptor, sequence (P05106 27-788): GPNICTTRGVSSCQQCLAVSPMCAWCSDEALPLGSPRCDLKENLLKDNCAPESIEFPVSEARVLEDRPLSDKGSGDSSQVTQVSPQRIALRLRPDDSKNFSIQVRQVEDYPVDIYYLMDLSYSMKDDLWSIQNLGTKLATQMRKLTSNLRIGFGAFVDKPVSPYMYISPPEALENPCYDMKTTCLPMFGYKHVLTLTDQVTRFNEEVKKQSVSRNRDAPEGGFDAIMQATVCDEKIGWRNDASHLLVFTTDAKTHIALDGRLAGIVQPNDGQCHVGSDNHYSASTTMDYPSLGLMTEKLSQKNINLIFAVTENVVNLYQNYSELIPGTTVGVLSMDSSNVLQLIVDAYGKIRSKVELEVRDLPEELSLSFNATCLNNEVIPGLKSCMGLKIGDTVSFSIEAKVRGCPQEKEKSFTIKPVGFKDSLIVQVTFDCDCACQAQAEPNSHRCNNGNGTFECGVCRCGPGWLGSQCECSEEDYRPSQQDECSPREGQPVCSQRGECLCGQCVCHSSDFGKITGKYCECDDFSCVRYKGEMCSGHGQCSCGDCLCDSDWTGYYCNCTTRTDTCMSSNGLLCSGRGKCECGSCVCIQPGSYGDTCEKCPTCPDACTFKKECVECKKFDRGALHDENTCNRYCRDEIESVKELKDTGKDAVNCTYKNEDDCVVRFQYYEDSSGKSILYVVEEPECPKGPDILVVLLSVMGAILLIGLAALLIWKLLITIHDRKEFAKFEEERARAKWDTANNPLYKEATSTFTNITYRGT
Method: Affinity assay: In the first step human GPIIb/IIIa purified from human platelets was immobilized on a 96-well solid plate. After 48 hours the plates were washed and the unspecific binding sites were blocked with Roti®-Block. […] In the next step, the plates were simultaneously incubated with a tritium labeled known GPIIb/IIIa binder (^3H) mixed with increasing concentrations of the novel compounds (inhibitor). […] The fraction of tritiated compound (^3H), which is not displaced by inhibitor, was measured in a microplate scintillation counter. […]
The maximum value of tritiated reference compound was determined without addition of inhibitor (n=8). […]
After one hour the plate was washed three times with phosphate-buffered saline (200 μL per well, Dulbecco's Phosphate Buffered Saline (D-PBS (+)), GIBCO®, Invitrogen). […] After 15 min at room temperature the plates were measured at the microplate scintillation counter (TopCount NXT v2.13, Perkin Elmer, Packard Instrument Company).
In the first step human glycoprotein IIb/IIIa, which is purified from human platelets, was immobilized on a 96-well solid plate. […] The fraction of tritiated reference compound, which is not displaced by inhibitor, was measured at a microplate scintillation counter. […] By means of this assay the affinities (1050 values) could be determined.

[3] = tested on: in vitro platelet-rich thrombi; assay: Magnetic resonance imaging of in vitro platelet-rich thrombi; format: cell-based, human; details: 20 min incubation, washed three times, 1.5 T 3D TSE
Method: Magnetic resonance imaging of in vitro platelet-rich thrombi and incubation solution (example 1) using a 3D turbo spin echo sequence (1.5 T, Siemens Avanto, small extremity coil, TR 1050 ms, TE 9.1 ms, 0.5×0.5×0.6 mm^3). In FIG. 2a an in vitro control thrombus without the addition of a contrast agent is shown. The signal intensity of the control thrombus is slightly higher than the surrounding medium but clearly lower than the signal of the in vitro thrombus which was incubated with Example 1 as depicted in FIG. 2b. In FIG. 2c the incubation solution with a final concentration of 10 μmol substance/L of example 1 in human plasma is represented. The signal intensity is higher than the surrounding plasma solutions in the in vitro platelet-rich thrombi 2a and 2b.
The in vitro thrombus in FIG. 2b is incubated with the solution which is depicted in FIG. 2c. After 20 min incubation period the thrombi was washed three times with plasma solution.
Magnetic resonance imaging of in vitro platelet-rich thrombi and incubation solution (Example 1) using a 3D turbo spin echo sequence (1.5 T, Siemens Avanto, small extremity coil, TR 1050 ms, TE 9.1 ms, 0.5×0.5×0.6 mm^3). In FIG. 3a an in vitro control thrombus without the addition of a contrast agent is shown. […]

[4] = incubation concentration 1 μM molecule, incubation time 3 min
[5] = incubation concentration 1 μM molecule, incubation time 20 min
[6] = incubation concentration 10 μM molecule, incubation time 20 min

`CC(C(=O)NCC(=O)NCC(NC(=O)CNC(=O)C(C)N1CCN(CC(=O)O)CCN(CC(=O)O)CCN(CC(=O)O)CC1)C(=O)NCC(NC(=O)C(CNC(=O)CNC(=O)C(C)N1CCN(CC(=O)O)CCN(CC(=O)O)CCN(CC(=O)O)CC1)NC(=O)CNC(=O)C(C)N1CCN(CC(=O)O)CCN(CC(=O)O)CCN(CC(=O)O)CC1)C(=O)NCC(NC(=O)C(CNC(=O)C(CNC(=O)CNC(=O)C(C)N1CCN(CC(=O)O)CCN(CC(=O)O)CCN(CC(=O)O)CC1)NC(=O)CNC(=O)C(C)N1CCN(CC(=O)O)CCN(CC(=O)O)CCN(CC(=O)O)CC1)NC(=O)C(CNC(=O)CNC(=O)C(C)N1CCN(CC(=O)O)CCN(CC(=O)O)CCN(CC(=O)O)CC1)NC(=O)CNC(=O)C(C)N1CCN(CC(=O)O)CCN(CC(=O)O)CCN(CC(=O)O)CC1)C(=O)NCCCCc1cccc(C#Cc2cncc([C@H](CC(=O)O)NC(=O)[C@@H]3CCCN(C(=O)CCC4CCNCC4)C3)c2)c1)N1CCN(CC(=O)O)CCN(CC(=O)O)CCN(CC(=O)O)CC1` (stereo partly drawn) [Example 1, Octagadolinium 2,3-bis-{[2,3-bis({2,3-bis[(N-{2-[4,7,10-tris(carboxylatomethyl)-1,4,7,10-tetraazacyclododecan-1-yl]propanoyl}glycyl)amino]propanoyl}amino)propanoyl]amino}-N-(4-{3-[(5-{(1S)-2-carboxy-1-[({(3R)-1-[3-(piperidin-4-yl)propanoyl]piperidin-3-yl}carbonyl)amino]ethyl}pyridin-3-yl)ethynyl]phenyl}butyl)propanamide] was tested, and the Gadolinium concentration (thrombus; blood) was 3.3 ± 0.7 (n = 5) μM Gd, the Gadolinium concentration (thrombus; left carotis) was 9.4 ± 0.4 (n = 4) μM Gd and the Gadolinium concentration (thrombus; right carotis) was 4.3 ± 0.7 (n = 4) μM Gd. It also gave a Gadolinium concentration (thrombus; right jugular vein) of 4.0 μM Gd, a Gadolinium concentration (thrombus; thrombus left carotis) of 29.3 μM Gd and a thrombus/blood ratio (thrombus; thrombus left carotis) of 8.9. For the same compound, the Gadolinium concentration (thrombus; thrombus right carotis) was 41.0 μM Gd, the thrombus/blood ratio (thrombus; thrombus right carotis) was 12.4 and the “Concentration within platelet pellet” value ([1]; incubation concentration 0.1 μM molecule, incubation time 20 min) was 28.2 ± 1.8 μM Gd. For the same compound, the “Concentration within platelet pellet” value [1, 4] was 32.7 ± 7.8 μM Gd, the pellet/supernatant [1, 4] was 131 ± 36 and the “Concentration within platelet pellet” value [1, 5] was 28.8 ± 2.2 μM Gd. The pellet/supernatant [1, 5] was 108 ± 18, the “Concentration within platelet pellet” value [1, 6] was 35.9 ± 1.6 μM Gd and the pellet/supernatant [1, 6] was 81 ± 5. The IC50 [2] was 40 nM, the “MRI signal intensity of incubated in vitro thrombus versus control thrombus” value ([3]; 0.1 μmol substance/L (0.8 μmol Gd/L) in human plasma) was “clearly higher signal than the control thrombi” and the “MRI signal intensity of incubated in vitro thrombus versus control thrombus” value ([3]; 10 μmol substance/L in human plasma) was “clearly higher signal than the control thrombi”.
